Reference: patent publication US6093838A, “Amines substituted with a dihydro-benzofuranyl or with a dihydro-isobenzofuranyl group, an aryl or heteroaryl group and an alkyl group, having retinoid-like biological activity” (Allergan Sales, Inc., priority 1999, dated 2000)

Assays:
[1] = target: T1, RXRβ (Mus musculus, UniProt P28704); assay: holoreceptor transactivation assay, RXRβ; format: cell-based; settings: for EC50: holoreceptor transactivation, RXRβ, read-out: RXR Trans. EC50 β; for Emax: relative to 10^-6 M cyclopropyl penta-2,4-dienoic acid reference (RXRs), read-out: % efficacy (RXRβ transactivation)
T1 construct: expressed in transfected cells
T1 sequence (P28704 1-520): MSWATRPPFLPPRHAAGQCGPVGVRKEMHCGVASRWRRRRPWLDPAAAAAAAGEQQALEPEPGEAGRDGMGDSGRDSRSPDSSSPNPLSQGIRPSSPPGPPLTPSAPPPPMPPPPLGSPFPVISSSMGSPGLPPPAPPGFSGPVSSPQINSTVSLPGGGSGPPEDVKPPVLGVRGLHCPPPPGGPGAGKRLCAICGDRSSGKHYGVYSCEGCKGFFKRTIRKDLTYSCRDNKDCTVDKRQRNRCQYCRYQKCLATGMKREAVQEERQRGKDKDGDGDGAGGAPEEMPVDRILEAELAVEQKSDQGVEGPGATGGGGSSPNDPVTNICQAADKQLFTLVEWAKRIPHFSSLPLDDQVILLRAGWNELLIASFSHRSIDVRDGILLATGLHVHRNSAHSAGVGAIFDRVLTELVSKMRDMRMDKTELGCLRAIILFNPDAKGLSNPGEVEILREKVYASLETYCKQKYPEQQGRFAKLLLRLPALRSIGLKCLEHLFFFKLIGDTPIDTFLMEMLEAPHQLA
Excerpt: (§1) Other assays described below, measure the ability of the compounds of the present invention to bind to, and/or activate various retinoid receptor subtypes. When in these assays a compound binds to a given receptor subtype and activates the transcription of a reporter gene through that subtype, then the compound is considered an agonist of that receptor subtype. […] In the below described assays the ability of the compounds to bind to RARα, RARβ, RARγ, RXRα, RXRβ and RXRγ receptors, and the ability or inability of the compounds to activate transcription of a reporter gene through these receptor subtypes can be tested. […] However, some of the compounds of the invention may behave as retinoid antagonists or partial antagonists and/or as inverse agonists. Because of the complex distribution of the different retinoid receptors in various organs of the mammalian body partial agonists and partial antagonists and compounds which have the characteristics of both may lend themselves to particularly useful therapeutic applications and may avoid serious side effects of conventional retinoid drugs.
(§2) A holoreceptor transactivation assay and a ligand binding assay which measure the antagonist/agonist like activity of the compounds of the invention, or their ability to bind to the several retinoid receptor subtypes, respectively, are described in published PCT Application No. WO WO93/11755 (particularly on pages 30-33 and 37-41) published on Jun. 24, 1993, the specification of which is also incorporated herein by reference. A detailed experimental procedure for holoreceptor transactivations has been described by Heyman et al. Cell 68, 397-406, (1992); Allegretto et al. J. Biol. Chem. 268, 26625-26633, and Mangelsdorf et al. The Retinoids: Biology, Chemistry and Medicine, pp 319-349, Raven Press Ltd., New York, which are expressly incorporated herein by reference. The results obtained in this assay are expressed in EC50 numbers, as they are also in the chimeric receptor transactivation assay. The results of ligand binding assay are expressed in Kd numbers. (See Cheng et al. Biochemical Pharmacology Vol. 22 pp 3099-3108, expressly incorporated herein by reference.)
(§3) Table 1 discloses the activity of certain exemplary compounds of the invention in the above-described chimeric receptor transactivation assay, holoreceptor transactivation assay and a ligand binding assays. Particularly, the transactivation data pertaining to RAR receptors were obtained in the chimeric assay, and the data pertaining to transactivation of RXR receptors were obtained in the holoreceptor transactivation assay.

[2] = target: T2, RXRγ (Mus musculus, UniProt P28705); assay: holoreceptor transactivation assay, RXRγ; format: cell-based; settings: for EC50: holoreceptor transactivation, RXRγ, read-out: RXR Trans. EC50 γ; for Emax: relative to 10^-6 M cyclopropyl penta-2,4-dienoic acid reference (RXRs), read-out: % efficacy (RXRγ transactivation)
T2 construct: expressed in transfected cells
T2 sequence (P28705 1-463): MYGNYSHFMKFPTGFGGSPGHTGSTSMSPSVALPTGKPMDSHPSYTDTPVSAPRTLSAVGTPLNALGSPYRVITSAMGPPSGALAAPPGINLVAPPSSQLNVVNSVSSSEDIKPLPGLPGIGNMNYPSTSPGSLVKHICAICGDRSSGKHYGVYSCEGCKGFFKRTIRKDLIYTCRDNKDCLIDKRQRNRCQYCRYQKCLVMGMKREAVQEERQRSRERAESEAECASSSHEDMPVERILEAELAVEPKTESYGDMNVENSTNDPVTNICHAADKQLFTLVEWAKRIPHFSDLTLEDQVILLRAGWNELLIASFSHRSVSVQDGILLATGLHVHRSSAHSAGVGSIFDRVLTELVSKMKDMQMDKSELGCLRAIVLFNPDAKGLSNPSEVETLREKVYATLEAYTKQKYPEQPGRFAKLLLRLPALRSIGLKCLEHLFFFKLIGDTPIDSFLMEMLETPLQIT
Excerpt: as §1, §2, §3

[3] = target: T3, RARβ (Homo sapiens, UniProt P10826); assay: ligand binding assay, RARβ; settings: read-out: RAR Bind. Ki β
T3 sequence (P10826 1-448 isoform P10826-2): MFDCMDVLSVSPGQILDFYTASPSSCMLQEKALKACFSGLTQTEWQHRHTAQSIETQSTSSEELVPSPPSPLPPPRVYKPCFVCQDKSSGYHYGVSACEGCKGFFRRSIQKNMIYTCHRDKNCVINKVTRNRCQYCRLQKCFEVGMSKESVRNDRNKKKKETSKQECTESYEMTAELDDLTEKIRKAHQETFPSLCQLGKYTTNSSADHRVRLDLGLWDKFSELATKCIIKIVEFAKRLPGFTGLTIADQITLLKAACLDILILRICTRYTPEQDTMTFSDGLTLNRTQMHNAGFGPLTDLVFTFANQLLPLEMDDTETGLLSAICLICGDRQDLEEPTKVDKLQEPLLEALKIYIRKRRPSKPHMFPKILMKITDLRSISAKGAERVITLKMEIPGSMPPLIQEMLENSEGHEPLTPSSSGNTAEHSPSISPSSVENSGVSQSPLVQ
Excerpt: as §1, §2, §3

[4] = target: RXRβ; assay: ligand binding assay, RXRβ; settings: read-out: RXR Bind Ki β
Excerpt: as §1, §2, §3

| EC50 [1] | Emax [1] | EC50 [2] | Emax [2] | Ki [3] | Ki [4] | SMILES |
| --- | --- | --- | --- | --- | --- | --- |
| > 1000 nM | 10% | > 1000 nM | 70% | > 30000 nM | 4600 nM | CC(C)c1cc(N(C)c2ccc(C(=O)O)cc2)cc2c1OCC2(C)C [Compound 30, 4-[Methyl-(3,3-dimethyl-7-isopropyl-2,3-dihydro-benzofuran-5-yl)-amino]-benzoic acid] |
| 71 nM | 92% | 17 nM | 97% | > 10000 nM | 178 nM | Cc1c(N(c2ccc(C(=O)O)cc2)C(C)C)cc2c(c1C(C)(C)C)OCC2(C)C [Compound 73, 4-[Isopropyl-(7-t-butyl-3,3,6-trimethyl-2,3-dihydro-benzofuran-5-yl)-amino]-benzoic acid] |
| > 1000 nM | 30% | 511 nM | 132% | > 10000 nM | > 1000 nM | CCc1cc(N(c2ccc(C(=O)O)cc2)C(C)C)cc2c1OCC2(C)C [Compound 42, 4-[Isopropyl-(3,3-dimethyl-7-ethyl-2,3-dihydro-benzofuran-5-yl)-amino]-benzoic acid] |
| 1000 nM | 50% | 230 nM | 122% | > 1000 nM | 342 nM | CCN(c1ccc(C(=O)O)cc1)c1cc(C(C)(C)C)c2c(c1)C(C)(C)CO2 [Compound 32, 4-[Ethyl-(7-t-butyl-3,3-dimethyl-2,3-dihydro-benzofuran-5-yl)-amino]-benzoic acid] |
| 1000 nM | 75% | 85 nM | 125% | 29000 nM | 752 nM | CCN(c1ccc(C(=O)O)cc1)c1cc(C(C)C)c2c(c1)C(C)(C)CO2 [Compound 31, 4-[Ethyl-(3,3-dimethyl-7-isopropyl-2,3-dihydro-benzofuran-5-yl)-amino]-benzoic acid] |
| 58 nM | 58% | 19 nM | 108% | > 10000 nM |  | CC(C)c1cc(N(c2ccc(C(=O)O)cc2)C(C)C)cc2c1OCC2(C)C [Compound 43] |
| 800 nM | 70% | 692 nM | 130% | > 10000 nM | > 1000 nM | CCc1cc(N(CC)c2ccc(C(=O)O)cc2)cc2c1OCC2(C)C [Compound 29, 4-[Ethyl-(3,3-dimethyl-7-ethyl-2,3-dihydro-benzofuran-5-yl)-amino]-benzoic acid] |
| 1000 nM | 184% | 51 nM | 124% | > 10000 nM | 2000 nM | CCCN(c1ccc(C(=O)O)cc1)c1ccc2c(c1)C(C)(C)OC2(C)C [Compound 84, 4-[n-Propyl-(1,1,3,3-tetramethyl-1,3-dihydro-isobenzofuran-5-yl)-amino]-benzoic acid] |
| > 1000 nM |  | > 1000 nM |  | > 30000 nM | > 100000 nM | CCN(c1ccc(C(=O)O)cc1)c1cc(C)c2c(c1)C(C)(C)CO2 [Compound 27, 4-[Ethyl-(3,3,7-trimethyl-2,3-dihydro-benzofuran-5-yl)-amino]-benzoic acid] |
| 171 nM | 33% | 20 nM | 48% | > 1000 nM | 215 nM | CC(C)N(c1ccc(C(=O)O)cc1)c1cc(C(C)(C)C)c2c(c1)C(C)(C)CO2 [Compound 44, 4-[Isopropyl-(7-t-butyl-3,3-dimethyl-2,3-dihydro-benzofuran-5-yl)-amino]-benzoic acid] |
| 1000 nM | 60% | 700 nM | 197% | > 10000 nM | > 1000 nM | CCCCN(c1ccc(C(=O)O)cc1)c1ccc2c(c1)C(C)(C)OC2(C)C [Compound 85, 4-[n-Butyl-(1,1,3,3-tetramethyl-1,3-dihydro-isobenzofuran-5-yl)-amino]-benzoic acid] |
| 1000 nM | 100% | 63 nM | 140% | > 10000 nM | > 1000 nM | CCN(c1ccc(C(=O)O)cc1)c1ccc2c(c1)C(C)(C)OC2(C)C [Compound 83, 4-[Ethyl-(1,1,3,3-tetramethyl-1,3-dihydro-isobenzofuran-5-yl)-amino]-benzoic acid] |
| 1000 nM | 65% | 765 nM | 134% | > 10000 nM | 2700 nM | CC(C)N(c1ccc(C(=O)O)cc1)c1ccc2c(c1)C(C)(C)OC2(C)C [Compound 87, 4-[i-Propyl-(1,1,3,3-tetramethyl-1,3-dihydro-isobenzofuran-5-yl)-amino]-benzoic acid] |
